Results published in patent US20180153872A1, “HETEROARYL CARBONITRILES FOR THE TREATMENT OF DISEASE” (OPKO Health, Inc., priority 2015, published 2018).
Like-named read-outs stand apart in the source and are kept apart here.

Tests used:
[1] = Rising single-dose safety, tolerability and pharmacokinetics study in healthy human volunteers; assay type: in vivo
Protocol: A randomized, placebo-controlled, third party blind (within dose level), rising, single-dose escalation study to evaluate the safety, tolerability and pharmacokinetics of SCH900978 in healthy human volunteers was conducted and completed. […] Six subjects received placebo. […] Food had no effect on the oral bioavailability of SCH900978. […] Tmax occurred within 0-4 hours at each dosage strength. Table 2 below provides the mean SCH900978 pharmacokinetic parameters following administration of a single oral dose of 25 mgs of SCH900978 capsule or solution to healthy volunteers.
Table 3 below provides the mean SCH900978 pharmacokinetic parameters following administration of a single oral dose of 50 mgs of SCH900978 to healthy volunteers under fasted and fed conditions.

log D, octanol/water = assay type: physicochemical; settings: pH 7.4, octanol/water system
Description: The present invention comprises a compound having activity in mammalian cough models and is thus useful in the treatment of cough in mammals, including humans, after oral administration. The present invention comprises an oral formulation of a compound of formula I and pharmaceutically acceptable excipients selected from the group consisting of diluents, binders, disintegrants, wetting agents and lubricants. In a preferred embodiment the pharmaceutical composition comprises a compound of formula I (or IIa-IIc) or II and lactose monohydrate, microcrystalline cellulose, povidone, crospovidone, poloxamer 188 and magnesium stearate. The preferred oral form is a capsule. The amount of active ingredient in the capsule or oral dosage form may range from 1 mg to 250 mgs with a preferred range of 10-150 mg with a more preferred range of 20-100 mg per day in humans. The present invention also relates to an NK-1 antagonist (e.g., Formula II) having a half-life of approximately 10-13 days. The present invention further relates to a method of treating pruritus comprising administering a pharmaceutically effective amount of a compound of formula II having a half-life of 10-13 days to a patient in need of treatment thereof. […] The measured onset melting temperature as measured by differential scanning calorimetry (DSC) is 168.9. […]

NK1 receptors [2] = target: NK1 receptors (Rattus norvegicus, UniProt P14600); assay: NK1 receptor radioligand binding, rat; settings: no unit, Ki in nM
Protocol: (§1) SCH900978 was also tested for NK2 and NK3 receptor activity and in 106 other receptors, transporters, enzymes and ion channels and had greater than 1000 fold lower affinity for these than for the NK1 receptor.

[3] = system: 106 other receptors, transporters, enzymes and ion channels; assay: Panel of 106 other receptors, transporters, enzymes and ion channels; assay type: binding
Protocol: as §1

Plasma protein binding = assay type: in vitro ADME; settings: all mammals tested and human
Description: (§2) Urinary excretion was also substantial (approximately 20%).

NK2 receptor = target: T1, NK2 receptor (Homo sapiens, UniProt P21452); assay: NK2 receptor affinity; assay type: binding
T1 sequence (P21452 1-398): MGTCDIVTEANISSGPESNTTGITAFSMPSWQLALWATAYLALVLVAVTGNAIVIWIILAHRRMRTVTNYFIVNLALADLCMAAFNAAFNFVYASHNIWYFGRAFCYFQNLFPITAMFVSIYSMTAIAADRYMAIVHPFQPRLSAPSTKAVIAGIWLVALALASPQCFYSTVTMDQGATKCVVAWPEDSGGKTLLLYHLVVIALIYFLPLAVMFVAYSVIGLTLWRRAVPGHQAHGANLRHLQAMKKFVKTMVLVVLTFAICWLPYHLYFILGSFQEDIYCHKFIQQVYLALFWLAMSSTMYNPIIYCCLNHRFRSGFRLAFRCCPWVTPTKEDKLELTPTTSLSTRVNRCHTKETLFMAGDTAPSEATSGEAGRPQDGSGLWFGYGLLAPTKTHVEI
Description: (§3) A compound of formula I (also designated SCH 900978) is a potent, selective, competitive neurokinin-1 (NK-1) receptor antagonist that is effective as an oral administered drug for the treatment of cough and meets this unmet medical need. In addition, this drug is effective for the treatment of overactive bladder (OAB) and other selected indications including major depression and alcohol dependency. […] The present invention comprises a compound of formula I having an effective dose for 90% inhibition [ED90]=0.2 mg/kg as determined in an in vivo pharmacodynamic model of NK1 receptor activity (gerbil foot thumping).
as §1

Brain penetration, rats = assay type: in vivo, rat
Protocol: as §2
The extent of brain penetration by SCH 900978 was evaluated after oral administration of SCH 900978 amorphous hydrochloride to female gerbils (0.1 mg/kg), male Sprague Dawley rats (5 mg/kg), and male guinea pigs (0.3 mg/kg).

NK1 receptor = NK1 receptor (Homo sapiens, UniProt P25103); assay: Block of GR-73632-mediated calcium efflux in cells expressing the human NK1 receptor (Schild analysis); assay type: cell-based; settings: GR-73632-stimulated calcium efflux, read-out: Kb, equilibrium dissociation constant determined by Schild analysis
Description: as §3, §1

NK1 receptors [4] = target: NK1 receptors (Mus musculus, UniProt P30548); assay: NK1 receptor radioligand binding, mouse; settings: no unit, Ki in nM
Protocol: as §1

[5] = 25 mg solution, single oral dose, n = 5
[6] = 50 mg fasted, single oral dose, n = 6
[7] = 50 mg fed, single oral dose, n = 6

Chain of NK1 receptors (Rattus norvegicus, UniProt P14600) (P14600 whole entry): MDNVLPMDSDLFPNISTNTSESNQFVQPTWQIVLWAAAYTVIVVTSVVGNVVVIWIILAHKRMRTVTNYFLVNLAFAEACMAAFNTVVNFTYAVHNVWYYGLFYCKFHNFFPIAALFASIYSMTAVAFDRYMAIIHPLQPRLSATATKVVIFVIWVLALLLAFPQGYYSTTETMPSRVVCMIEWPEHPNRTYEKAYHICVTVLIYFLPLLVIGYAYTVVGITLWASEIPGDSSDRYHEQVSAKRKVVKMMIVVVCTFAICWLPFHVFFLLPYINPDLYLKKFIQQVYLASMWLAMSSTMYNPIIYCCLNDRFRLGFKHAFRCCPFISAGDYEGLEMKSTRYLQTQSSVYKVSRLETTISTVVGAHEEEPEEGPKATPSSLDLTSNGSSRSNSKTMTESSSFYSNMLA
Chain of NK1 receptors (Mus musculus, UniProt P30548) (P30548 whole entry): as the sequence (P14600 whole entry) above, with M7V, I15T, V266I, E367D counted along it
Chain of NK1 receptor (P25103 whole entry): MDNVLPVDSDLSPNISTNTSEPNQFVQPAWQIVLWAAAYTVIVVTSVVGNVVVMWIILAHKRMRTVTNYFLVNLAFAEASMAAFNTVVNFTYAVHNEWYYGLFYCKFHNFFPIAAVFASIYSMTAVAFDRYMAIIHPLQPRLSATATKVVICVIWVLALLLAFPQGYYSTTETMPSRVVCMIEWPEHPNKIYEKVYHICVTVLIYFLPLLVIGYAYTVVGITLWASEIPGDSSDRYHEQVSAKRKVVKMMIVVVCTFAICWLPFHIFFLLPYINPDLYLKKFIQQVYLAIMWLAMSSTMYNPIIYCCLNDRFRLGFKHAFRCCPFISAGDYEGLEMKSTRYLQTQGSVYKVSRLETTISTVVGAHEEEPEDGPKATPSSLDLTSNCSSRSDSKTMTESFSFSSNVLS

C[C@@H](OC[C@@]1(c2ccccc2)CC[C@](C#N)(n2cn[nH]c2=O)CN1)c1cc(C(F)(F)F)cc(C(F)(F)F)c1 [Compound 42, (3 S,6S)-6-({(1R)-1-[3,5-bis(trifluoromethyl)phenyl]ethoxy}methyl)-3-(5-oxo-1,5dihydro-4H-1,2,4-triazol-4-yl)-6-phenylpiperidine-3-carbonitrile]
Tf Mean/% CV ([1]; 25 mg capsule, single oral dose, n = 5): 312^b/0^ hr
Cmax Mean/% CV ([1]; 25 mg capsule, single oral dose, n = 6): 213/27
AUC(tf) Mean/% CV [1, 5]: 29900/22
Tf Mean/% CV [1, 5]: 312/0
Cmax Mean/% CV ([1]; 25 mg solution, single oral dose, n = 5, adjusted for carryover): 301/21
AUC(l) Mean/% CV [1, 6]: 88700/23
AUC(tf) Mean/% CV [1, 6]: 59700/24
Cmax Mean/% CV [1, 6]: 388/32
T1/2 Mean/% CV [1, 6]: 309/32
Tf Mean/% CV [1, 6]: 504/0
AUC(tf) Mean/% CV [1, 7]: 69000/19
Tf Mean/% CV [1, 7]: 504/0
Cmax Mean/% CV ([1]; 50 mg fed, single oral dose, n = 6, adjusted for carryover): 366/23
bioavailability, solution versus capsule oral formulations ([1]; healthy volunteers): comparable
effect of food on oral bioavailability ([1]; healthy volunteers): no effect
safety and tolerability ([1]; healthy volunteers, oral doses up to 50 mg): safe and well tolerated
absorption and elimination ([1]; healthy volunteers, single oral doses 10, 25, 50 mg): rapidly absorbed and slowly eliminated
AUC ([1]; human, plasma, oral, 10 mg to 200 mg dose, after a single dose, read-out: AUC plasma blood level): 19000 to 352000 ng·h/mL
half-life ([1]; human, plasma, oral, human, read-out: t1/2 (half-life)): 10 to 13 days
Cmax ([1]; human, plasma, oral, 10 mg to 200 mg dosage range, based on values from volunteers given 10, 25 and 50 mg, read-out: Cmax (either calculated or estimated)): 103 to 1480 ng/mL
Tmax ([1]; human, plasma, oral, each dosage strength 10, 25, 50 mg): 0 to 0.167 days
AUC ([1]; human, plasma, po, 25 mg, 25 mg capsule, single oral dose, n = 4, read-out: AUC(l) Mean/% CV): 42900 ng·h/mL
half-life ([1]; human, plasma, po, 25 mg, 25 mg capsule, single oral dose, n = 4, read-out: T1/2 Mean/% CV (converted)): 9.92 days
AUC ([1]; human, plasma, po, 25 mg, 25 mg capsule, single oral dose, n = 5, read-out: AUC(tf) Mean/% CV): 25700 ng·h/mL
AUC ([1]; human, plasma, po, 25 mg, 25 mg solution, single oral dose, n = 4, read-out: AUC(l) Mean/% CV): 52600 ng·h/mL
half-life ([1]; human, plasma, po, 25 mg, 25 mg solution, single oral dose, n = 4, read-out: T1/2 Mean/% CV (converted)): 10.5 days
AUC ([1]; human, plasma, po, 50 mg, 50 mg fed, single oral dose, n = 4, read-out: AUC(l) Mean/% CV): 97000 ng·h/mL
half-life ([1]; human, plasma, po, 50 mg, 50 mg fed, single oral dose, n = 4, read-out: T1/2 Mean/% CV (converted)): 13.2 days
exposure (Cmax and AUC) versus dose ([1]; single oral doses 10, 25, 50 mg): dose related
logD (log D, octanol/water): 4.5
Ki (NK1 receptors [2]): 4.62 nM
affinity for a battery of other receptors, transporters, enzymes or ion channels [3]: does not have significant affinity
fold lower affinity than for the NK1 receptor ([3]; 106 other receptors, transporters, enzymes and ion channels vs NK1): greater than 1000 fold
protein bound (Plasma protein binding): ≥ 99.6%
Ki (NK2 receptor): > 1000 nM
fold lower affinity than for the NK1 receptor (NK2 receptor; NK2 vs NK1): greater than 1000 fold
crossing of the blood brain barrier (Brain penetration, rats): readily crossed the blood brain barrier
Kb (NK1 receptor): 0.17 nM
Ki (NK1 receptors [4]): 0.76 nM
